Assays:
mouse ES cells (SK7) = assay: Immunohistochemical analysis of AFP-, Pdx1/GFP- and Alb-expressing cells in mouse ES cells differentiated on M15 cells; format: cell-based; details: for number of AFP-positive cells: factor added after d4, 10% KSR, 2,000 mg/L glucose (FIG. 3); for AFP expression, one factor added: one factor added d4 to d8, KSR, glucose 2,000 mg/L (FIG. 2B)
Experimental: A previously reported SK7 cell line (mouse ES cells) having a Pdx1 promoter-derived GFP reporter-introduced gene was used (International Publication WO2006/126574). The SK7 ES cells were maintained on mouse embryonic fibroblasts (MEF), using a Glasgow minimum essential medium (Invitrogen) supplemented with 1,000 units/mL leukemia inhibitory factor (Chemicon), 15% KSR (knockout serum replacement; Gibco), 1% fetal bovine serum (FBS; Hyclone), 100 μM nonessential amino acid (Invitrogen), 2 mM L-glutamine (Invitrogen), 1 mM sodium pyruvate (Invitrogen), 50 units/mL penicillin, 50 μg/mL streptomycin (Invitrogen) and 100 μM β-mercaptoethanol.
Thereafter, the ES cells (the number of cells: 5,000 and 20,000, respectively) were inoculated on a 24-well or 6-well plate (Nunc) that had previously been coated with the M15 cells. Subsequently, using DMEM containing 100 μM nonessential amino acid, 2 mM L-glutamine, 50 units/mL penicillin, 50 μg/mL streptomycin and 100 μM β-mercaptoethanol, the cells were cultured in a differentiation culture solution containing 10% FBS and 4,500 mg/L glucose from the initial day of culture (d0) to day 4 (d4), and after d4, the cells were then cultured in another culture solution containing 10% KSR and 2,000 mg/L glucose. Thus, the cells were cultured for a maximum of 30 days. In order to induce the […] endoderm, activin A (20 ng/mL) and bFGF (50 ng/mL) were added during the period from d0 to d4. Moreover, HGF (10 ng/mL) and dexamethasone (1 μM) were added during the period from d4 to d30. The culture solution was replaced with a fresh one containing a growth factor every two days. The details of such growth factor will be described at the end of the diferentiation section.
Recombinant human activin A (R&D Systems): 20 ng/mL; recombinant human bFGF (Peprotech): 50 ng/mL; recombinant human BMP4 (R&D Systems): 50 ng/mL; SU5402 (Mohammadi, et al., (1997). Science 276, 955-60.) (Calbiochem): 10 μM; recombinant mouse Noggin/Fc Chimera (R&D Systems): 100 ng/mL; recombinant human hepatic cell growth factor (HGF, Peprotech): 10 ng/mL; dexamethasone (Dex, Sigma): 1 μM; recombinant human oncostatin M (OSM, Sigma): 10 ng/mL.
For whole mount immunocytochemical analysis, ES cells were inoculated on 24-well Thennanox coverslips (Nunc). Using TCS-SP2 Spectral Confocal Scanning System (Leica), a confocal image was obtained. Using IX 71 Inverted (Olympus), a phase-contrast image was obtained. The following antibodies were used in detection: mouse anti-GFP (Roche), rabbit anti-α-fetoprotein (AFP, Biomeda), goat anti-albumin (Sigma), fluorescein isothiocyanate (FITC)-labeled Dolichos biflorus agglutinin (DBA) lectin (Sigma), rabbit anti-α-1-anti-trypsin (Sigma), rabbit anti-CYP3A2 (Biomol), rabbit anti-CYP7A1 (Santa Cruz), and mouse anti-Oct3/4 (Santa Cruz). As secondary antibodies, an Alexa568-labeled goat anti-rabbit antibody, donkey anti-goat antibody (Molecular Probes), and an Alexa488-labeled goat anti-mouse antibody, goat anti-rabbit antibody, and donkey anti-goat antibody (Molecular Probes) were used. The cells were subjected to counterstaining using DAPI (Roche). In order to quantify the number of the Afp-expressing cells of FIG. 3B, the region of an Afp-positive stained image was analyzed using Lumina Vision program (Mitani Corporation).

[1] = system: mouse ES cell-derived hepatic cells; assay: Albumin secretion analysis by ELISA; format: cell-based
Experimental: The medium was replaced with a fresh one, and 24 hours later, the conditioned medium was recovered. Using Lebis ELISA kit (Shibayagi), albumin secretion was analyzed.
It has been reported that OsM induces maturation of mouse fetal liver cells (Kamiya, A., Kinoshita, T. & Miyajima, A. (2001) Oncostatin M and hepatocyte growth factor induce hepatic maturation via distinct signaling pathways. FEBS Lett 492, 90-94). Thus, the influence of OsM on albumin secretion was analyzed by ELISA. The effect of OsM to enhance albumin secretion was not observed until […].

Cc1c[nH]c(/C=C2\C(=O)Nc3ccccc32)c1CCC(=O)O [SU5402, reference compound]
number of AFP-positive cells (mouse ES cells (SK7)): decreased

HGF: recombinant human hepatic cell growth factor (Peprotech)
AFP expression, one factor added (mouse ES cells (SK7)): promoted in the order of Dex>HGF>OsM

Noggin
number of AFP-positive cells (mouse ES cells (SK7)): almost all AFP-expressing cells disappeared

bFGF: recombinant human bFGF (Peprotech)
number of AFP-positive cells (mouse ES cells (SK7)): increased
AFP-expressing cells when bFGF was added to Noggin (mouse ES cells (SK7); in the presence of Noggin, after d4, 10% KSR, 2,000 mg/L glucose (FIG. 3)): recovered

B1: OsM: recombinant human oncostatin M (Sigma) (protein, UniProt P13725 26-221, looked up)
Oncostatin-M: AAIGSCSKEYRVLLGQLQKQTDLMQDTSRLLDPYIRIQGLDVPKLREHCRERPGAFPSEETLRGLGRRGFLQTLNATLGCVLHRLADLEQRLPKAQDLERSGLNIEDLEKLQMARPNILGLRNNIYCMAQLLDNSDTAEPTKAGRGASQPPTPTPASDAFQRKLEGCRFLHGYHRFMHSVGRVFSKWGESPNRSRR
AFP expression, one factor added (mouse ES cells (SK7)): promoted in the order of Dex>HGF>OsM
increase of albumin secretion ([1]; d50 and d60, medium with OsM, Dex and HGF versus control medium with only Dex and HGF, 24 hours): 2 times
effect to enhance albumin secretion ([1]; until c40, OsM added to Dex and HGF): not observed
